Reference: the OligoGym collection
Where “and” joins values, the source holds several entries; their conditions need not be identical. Equal entries are not always repeated. After the bases stand the sugars from the 5' end (letter, count) and the backbone: PS all phosphorothioate, else s phosphorothioate and o phosphodiester by linkage. Methylation of C is not given here. l = locked nucleic acid (LNA); d = 2'-deoxy (DNA)

Tests used:
HTRA1 = conditions: ASO, U251, 5 µM
MYH7 = conditions: ASO, CC-2580, 5 µM
ANGPTL2 = conditions: ASO

ATCGACTGCATTAGTT (sugars l3 d10 l3, PS)
target mRNA inhibition (HTRA1): 99%

ATCTACGCATTGTATC (sugars l4 d8 l4, PS)
target mRNA inhibition (HTRA1): 87%

ATGTGTAAGAAGTACT (sugars l3 d10 l3, PS)
target mRNA inhibition (HTRA1): 70%

ATTGTATCGACTGCAT (sugars l3 d11 l2, PS)
target mRNA inhibition (HTRA1): 99%

CAATGTGTAAGAAGTACTTT (sugars l4 d12 l4, PS)
target mRNA inhibition (HTRA1): 79%

CAGCTTGGCGATGATCT (sugars l2 d6 l1 d5 l3, PS)
target mRNA inhibition (MYH7): 7% and -9%

CAGCTTGGCGATGATCT (sugars l2 d8 l3 d2 l2, PS)
target mRNA inhibition (MYH7): 39% and 30%

CAGCTTGGCGATGATCT (sugars l2 d10 l1 d2 l2, PS)
target mRNA inhibition (MYH7): 64% and 43%

CAGCTTGGCGATGATCT (sugars l4 d9 l4, PS)
target mRNA inhibition (MYH7): 27% and 4%

CAGCTTGGCGATGATCT (sugars lddlddddddddlddll, PS)
target mRNA inhibition (MYH7): 35% and 18%

CAGCTTGGCGATGATCT (sugars lddldddddddldddll, PS)
target mRNA inhibition (MYH7): -4% and -11%

CAGCTTGGCGATGATCT (sugars lddldddddddldllll, PS)
target mRNA inhibition (MYH7): 7% and -16%

CAGCTTGGCGATGATCT (sugars lddlddddddldlldll, PS)
target mRNA inhibition (MYH7): 21% and 13%

CAGCTTGGCGATGATCT (sugars lddlddddddlllddll, PS)
target mRNA inhibition (MYH7): -30%

CAGCTTGGCGATGATCT (sugars lddlddldddddldlll, PS)
target mRNA inhibition (MYH7): -32% and -42%

CAGCTTGGCGATGATCT (sugars lddlddldlldddddll, PS)
target mRNA inhibition (MYH7): -27% and -45%

CAGCTTGGCGATGATCT (sugars lddldlddlldddddll, PS)
target mRNA inhibition (MYH7): 13% and 3%

CAGCTTGGCGATGATCT (sugars lddlldddddddldlll, PS)
target mRNA inhibition (MYH7): 4% and -21%

CAGCTTGGCGATGATCT (sugars lddllddddddllddll, PS)
target mRNA inhibition (MYH7): 9% and -10%

CAGCTTGGCGATGATCT (sugars lddlldddldddddlll, PS)
target mRNA inhibition (MYH7): 1% and -8%

CAGCTTGGCGATGATCT (sugars lddlldldlddddddll, PS)
target mRNA inhibition (MYH7): 9% and -15%

CAGCTTGGCGATGATCT (sugars ldldddddddlddldll, PS)
target mRNA inhibition (MYH7): 39% and 27%

CAGCTTGGCGATGATCT (sugars ldldddddddllddlll, PS)
target mRNA inhibition (MYH7): 46% and 28%

CAGCTTGGCGATGATCT (sugars ldlddlddddddlddll, PS)
target mRNA inhibition (MYH7): 47% and 25%

CAGCTTGGCGATGATCT (sugars ldldlddddddldldll, PS)
target mRNA inhibition (MYH7): 5% and -12%

CAGCTTGGCGATGATCT (sugars ldldlddddddllddll, PS)
target mRNA inhibition (MYH7): 26% and 7%

CAGCTTGGCGATGATCT (sugars ldldlddlddddddlll, PS)
target mRNA inhibition (MYH7): 18% and 3%

CAGCTTGGCGATGATCT (sugars ldldllddlddddddll, PS)
target mRNA inhibition (MYH7): -17% and -29%

CAGCTTGGCGATGATCT (sugars ldllldddddlddddll, PS)
target mRNA inhibition (MYH7): 49% and 30%

CAGCTTGGCGATGATCT (sugars lldddddddddldldll, PS)
target mRNA inhibition (MYH7): 40% and 22%

CAGCTTGGCGATGATCT (sugars llddddddddldlddll, PS)
target mRNA inhibition (MYH7): 26% and 5%

CAGCTTGGCGATGATCT (sugars llddddddddldldlll, PS)
target mRNA inhibition (MYH7): 32% and 17%

CAGCTTGGCGATGATCT (sugars lldddddddlldlddll, PS)
target mRNA inhibition (MYH7): 21% and 29%

CAGCTTGGCGATGATCT (sugars lldddldddddldldll, PS)
target mRNA inhibition (MYH7): 25% and 16%

CAGCTTGGCGATGATCT (sugars llddlddddddldldll, PS)
target mRNA inhibition (MYH7): 18% and 3%

CAGCTTGGCGATGATCT (sugars lllddddddddldldll, PS)
target mRNA inhibition (MYH7): 28% and 6%

CTACGCATTGTATCGA (sugars l4 d8 l4, PS)
target mRNA inhibition (HTRA1): 77%

CTATCTACGCATTGTA (sugars l4 d8 l4, PS)
target mRNA inhibition (HTRA1): 95%

CTATCTACGCATTGTATC (sugars l2 d12 l4, PS)
target mRNA inhibition (HTRA1): 77%

CTCAGTTAAAGGAGGAGACA (sugars l3 d15 l2, PS)
target mRNA inhibition (HTRA1): 26%

CTTAATGGGCAGTAATA (sugars l4 d9 l4, PS)
target mRNA inhibition (ANGPTL2; 5 µM): 32.6%
target mRNA inhibition (ANGPTL2; 25 µM): 42.3%

CTTCTATCTACGCATT (sugars l4 d8 l4, PS)
target mRNA inhibition (HTRA1): 83%

CTTGGCAATGATCTCATCC (sugars l3 d12 l4, PS)
target mRNA inhibition (MYH7): 89% and 66%

CTTGGCAATGATCTCATCC (sugars l4 d11 l4, PS)
target mRNA inhibition (MYH7): 61% and 50%

CTTGGCAATGATCTCATCC (sugars l4 d13 l2, PS)
target mRNA inhibition (MYH7): 60% and 45%

CTTGGCAATGATCTCATCC (sugars lddlddddddddlddldll, PS)
target mRNA inhibition (MYH7): 59% and 39%

CTTGGCAATGATCTCATCC (sugars ldldddddddddlddldll, PS)
target mRNA inhibition (MYH7): 68% and 43%

CTTGGCAATGATCTCATCC (sugars lldddddddldddlddlll, PS)
target mRNA inhibition (MYH7): 54% and 31%

CTTGGCAATGATCTCATCC (sugars lldldddddddldldldll, PS)
target mRNA inhibition (MYH7): 39% and 26%

CTTGGCAATGATCTCATCC (sugars lldlddddddlddldldll, PS)
target mRNA inhibition (MYH7): 1%

CTTGGCAATGATCTCATCC (sugars lldldldddddddldldll, PS)
target mRNA inhibition (MYH7): 16% and -4%

CTTGGCAATGATCTCATCC (sugars llldddddddlddldldll, PS)
target mRNA inhibition (MYH7): 60% and 35%

GAACCTCAATATCCTGC (sugars l1 d13 l3, PS)
target mRNA inhibition (ANGPTL2; 5 µM): 62.6%
target mRNA inhibition (ANGPTL2; 25 µM): 72.6%

GAACTCAGCCCAGTAGA (sugars l1 d14 l2, PS)
target mRNA inhibition (ANGPTL2; 5 µM): 1.82%
target mRNA inhibition (ANGPTL2; 25 µM): 15.7%

GAAGTACTTTAATAGCTCA (sugars l4 d12 l3, PS)
target mRNA inhibition (HTRA1): 85%

GACTAACTGTTGAAATTG (sugars l3 d11 l4, PS)
target mRNA inhibition (ANGPTL2; 5 µM): 26.9%
target mRNA inhibition (ANGPTL2; 25 µM): 30.8%

GAGTTCATGTTGCGGC (sugars l1 d13 l2, PS)
target mRNA inhibition (ANGPTL2; 5 µM): 21.4%
target mRNA inhibition (ANGPTL2; 25 µM): 24.9%

GATGACTCAGTTAAAGGAGG (sugars l2 d15 l3, PS)
target mRNA inhibition (HTRA1): 57%

GATGATGCGGTTGTAG (sugars l4 d10 l2, PS)
target mRNA inhibition (ANGPTL2; 5 µM): 70%
target mRNA inhibition (ANGPTL2; 25 µM): 75.2%

GCAATGTGTAAGAAGTA (sugars l3 d10 l4, PS)
target mRNA inhibition (HTRA1): 59%

GCAGCTCATTGTTGAGC (sugars l1 d14 l2, PS)
target mRNA inhibition (ANGPTL2; 5 µM): 8.7%

GCAGTTATCACACCACA (sugars l1 d13 l3, PS)
target mRNA inhibition (ANGPTL2; 5 µM): 38.9%
target mRNA inhibition (ANGPTL2; 25 µM): 44%

GCTCATTGTTGAGCAGC (sugars l1 d14 l2, PS)
target mRNA inhibition (ANGPTL2; 5 µM): -2.2%
target mRNA inhibition (ANGPTL2; 25 µM): 3.15%

GTATTGTGAGGAGTTTC (sugars l4 d11 l2, PS)
target mRNA inhibition (ANGPTL2; 5 µM): 80%
target mRNA inhibition (ANGPTL2; 25 µM): 84.3%

GTGGGCAGGAGAAGGGAC (sugars l1 d15 l2, PS)
target mRNA inhibition (ANGPTL2; 5 µM): 17.8%
target mRNA inhibition (ANGPTL2; 25 µM): -18.2%

GTTGATGATGCGGTTGTA (sugars l1 d15 l2, PS)
target mRNA inhibition (ANGPTL2; 5 µM): 44.2%
target mRNA inhibition (ANGPTL2; 25 µM): 53.9%

TAAGAAGTACTTTAATAG (sugars l4 d10 l4, PS)
target mRNA inhibition (HTRA1): 65%

TAAGAAGTACTTTAATAGC (sugars l4 d11 l4, PS)
target mRNA inhibition (HTRA1): 80%

TACGCATTGTATCGAC (sugars l4 d8 l4, PS)
target mRNA inhibition (HTRA1): 66%

TACTTTAATAGCTCAA (sugars l4 d8 l4, PS)
target mRNA inhibition (HTRA1): 95%

TATCGACTGCATTAGT (sugars l3 d11 l2, PS)
target mRNA inhibition (HTRA1): 98%

TATCGACTGCATTAGTT (sugars l4 d10 l3, PS)
target mRNA inhibition (HTRA1): 73%

TATCGACTGCATTAGTTG (sugars l2 d12 l4, PS)
target mRNA inhibition (HTRA1): 58%

TATCTACGCATTGTAT (sugars l3 d10 l3, PS)
target mRNA inhibition (HTRA1): 98% and 89%

TATCTACGCATTGTATCG (sugars l4 d12 l2, PS)
target mRNA inhibition (HTRA1): 71%

TATTAGCATCACTACTTT (sugars l4 d11 l3, PS)
target mRNA inhibition (ANGPTL2; 5 µM): 48%
target mRNA inhibition (ANGPTL2; 25 µM): 52.1%

TCAGCTTGGCGATGATCT (sugars l2 d9 l1 d2 l4, PS)
target mRNA inhibition (MYH7): 31% and 40%

TCAGCTTGGCGATGATCT (sugars l2 d14 l2, PS)
target mRNA inhibition (MYH7): 56% and 33%

TCAGCTTGGCGATGATCT (sugars lddldddddddlddllll, PS)
target mRNA inhibition (MYH7): 43% and 45%

TCAGCTTGGCGATGATCT (sugars lddldldddddddlddll, PS)
target mRNA inhibition (MYH7): 31% and 9%

TCAGCTTGGCGATGATCT (sugars lddldlddddddldllll, PS)
target mRNA inhibition (MYH7): 25% and 12%

TCAGCTTGGCGATGATCT (sugars ldldlddddddldlddll, PS)
target mRNA inhibition (MYH7): -4% and -12%

TCAGCTTGGCGATGATCT (sugars ldldlddddddlldldll, PS)
target mRNA inhibition (MYH7): -30% and -41%

TCAGCTTGGCGATGATCT (sugars llddldddddddldddll, PS)
target mRNA inhibition (MYH7): 35% and 17%

TCAGCTTGGCGATGATCT (sugars llddldddddddldldll, PS)
target mRNA inhibition (MYH7): 14% and 0%

TCAGCTTGGCGATGATCT (sugars lldldddddddddldlll, PS)
target mRNA inhibition (MYH7): 59% and 40%

TCAGTTAAAGGAGGAGACAA (sugars l3 d14 l3, PS)
target mRNA inhibition (HTRA1): 40%

TCCAAGGCACTCTATGAT (sugars l2 d14 l2, PS)
target mRNA inhibition (ANGPTL2; 5 µM): 13.8%
target mRNA inhibition (ANGPTL2; 25 µM): 27.7%

TCGACTGCATTAGTTG (sugars l3 d11 l2, PS)
target mRNA inhibition (HTRA1): 97%

TCTACGCATTGTATCG (sugars l4 d8 l4, PS)
target mRNA inhibition (HTRA1): 96%

TCTATCTACGCATTGTAT (sugars l2 d12 l4, PS)
target mRNA inhibition (HTRA1): 70%

TGACCCCTGATTATTCA (sugars l1 d13 l3, PS)
target mRNA inhibition (ANGPTL2; 5 µM): 7.55%
target mRNA inhibition (ANGPTL2; 25 µM): 4.06%

TGATGATGCGGTTGTAG (sugars l3 d12 l2, PS)
target mRNA inhibition (ANGPTL2; 5 µM): 64.2%
target mRNA inhibition (ANGPTL2; 25 µM): 70.3%

TGGTTGATGATGCGGTTGTA (sugars l1 d17 l2, PS)
target mRNA inhibition (ANGPTL2; 5 µM): 48%
target mRNA inhibition (ANGPTL2; 25 µM): 53%

TTATAAACTCCTTGCTCTA (sugars l1 d14 l4, PS)
target mRNA inhibition (ANGPTL2; 5 µM): 33.2%
target mRNA inhibition (ANGPTL2; 25 µM): 42.4%

TTGACAGGGATTAGGCA (sugars l1 d13 l3, PS)
target mRNA inhibition (ANGPTL2; 5 µM): 11.6%
target mRNA inhibition (ANGPTL2; 25 µM): 23.9%

TTTTGAGATTCCCCCAAA (sugars l1 d13 l4, PS)
target mRNA inhibition (ANGPTL2; 5 µM): 24.8%
target mRNA inhibition (ANGPTL2; 25 µM): 24.7%
